Measured values reported in PMC9519442, “Genotype–phenotype correlations in WHIM syndrome: a systematic characterization of CXCR4^WHIM variants” (Genes and Immunity, 2022).

What was measured:
[1] = tested on: WT CXCR4 and CXCR4^WHIM variants; assay: ERK activation assay (phosphoflow p-T202/Y204 ERK), K562 cells with stable CXCR4 expression; type: cell-based, human; conditions: 40 nM, 200 nM or 1 µM mavorixafor, 10 nM CXCL12 for 5 min
Protocol: (§1) Stable K562 clones expressing CXCR4 or Jurkat cells were seeded in starvation medium in 96-well plates overnight. After treatment, the cells were fixed with fixation solution (eBioscience, Thermo Fisher Scientific, Waltham, Massachusetts, USA) for 10 min at room temperature, then permeabilized for 5 min with ice-cold methanol on ice followed by a washing step with wash/permeabilization solution (eBioscience, Thermo Fisher Scientific, Waltham, Massachusetts, USA). Cells were then stained with Alexa Fluor 647 Mouse Anti-ERK1/2 (Product code 612593, pT202/pY204, 1/10 dilution, BD Biosciences) and Alexa Fluor 488 Mouse anti-Akt (Product code 560404, pS473, 1/10 dilution, BD Biosciences) for 1 h at room temperature in the dark. Cells were then washed 2 times in wash/permeabilization solution and resuspended in flow buffer (HBSS with Ca^2+ and Mg^2+ + 0.1% BSA + 20 mM HEPES pH 7.4). Samples were measured via flow cytometry (CytoFLEX Flow Cytometer) and analyzed in FCS Express software. After gating cells based on the FCS/SSC, MFI of the respective staining was exported for further analysis.

[2] = target: T1, CXCR4 S319C fs*24 (Homo sapiens, UniProt P61073); assay: Ca2+ mobilization assay, K562 cells with stable CXCR4 expression; type: cell-based; conditions: K562, read-out: Emax (% inhibition) of mavorixafor, Ca2+ mobilization
T1 construct: expressed in transfected cells; host or cells: K562
T1 sequence (P61073 with tags, fused parts or gaps, stated change not applied): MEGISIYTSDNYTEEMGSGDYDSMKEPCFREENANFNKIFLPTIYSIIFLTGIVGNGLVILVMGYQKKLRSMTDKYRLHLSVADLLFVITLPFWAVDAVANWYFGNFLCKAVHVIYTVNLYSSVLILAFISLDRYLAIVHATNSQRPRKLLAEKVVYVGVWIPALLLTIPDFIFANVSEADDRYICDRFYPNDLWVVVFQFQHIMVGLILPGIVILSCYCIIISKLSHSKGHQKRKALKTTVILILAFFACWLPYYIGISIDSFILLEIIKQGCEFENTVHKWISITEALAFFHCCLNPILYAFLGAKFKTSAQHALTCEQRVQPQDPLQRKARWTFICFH
Protocol: (§2) Stable K562 clones expressing CXCR4 (1 × 10^5 cells/well) were seeded in black 96-well plates with transparent bottom coated with poly-L-lysine (BioCoat®, Corning) and serum-starved for 24 h. Medium was removed and cells were loaded with 100 µl of fluo-4 AM (3 µM, Invitrogen) dye solution for 45 min at 37 °C. Dye solution was prepared by diluting fluo-4 powder in DMSO + 10% Pluronic F127 (Thermo Fisher Scientific, Waltham, Massachusetts, USA) to 3 mM and then preparing the final dilution in assay buffer (HBSS with Ca^2+ and Mg^2+, 20 mM HEPES, 0.375 g/l NaHCO3, 0.1% BSA + 0.77 g/L probenecid [Thermo Fisher Scientific]). Subsequently, 100 µl of assay buffer alone or assay buffer with compound dilutions was added and the plates were equilibrated in the plate reader for an additional 20 min at 37 °C. Jurkat cells (3 × 10^5 cells/well) were incubated with the Screen Quest Calbryte-520 Probenecid-Free and Wash-Free Calcium Assay Kit (AAT Bioquest, Sunnyvale, California, USA) according to manufacturer’s instructions. […] Raw traces were analyzed in SoftMax Pro 7 Software (Molecular Devices). The arbitrary units were calculated as the difference between maximal and minimal signal after treatment injection, normalized to the baseline signal before injection. Maximal effect (Emax) and half-maximal effective and inhibitory concentrations (EC50 and IC50, respectively) were calculated in Prism (GraphPad Software, San Diego, California, USA).

[3] = target: T2, CXCR4 R334X (Homo sapiens, UniProt P61073); assay: as above; type: cell-based; conditions: K562, read-out: Emax (% inhibition) of mavorixafor, Ca2+ mobilization
T2 construct: expressed in transfected cells; host or cells: K562
T2 sequence (P61073 1-333 limits assumed): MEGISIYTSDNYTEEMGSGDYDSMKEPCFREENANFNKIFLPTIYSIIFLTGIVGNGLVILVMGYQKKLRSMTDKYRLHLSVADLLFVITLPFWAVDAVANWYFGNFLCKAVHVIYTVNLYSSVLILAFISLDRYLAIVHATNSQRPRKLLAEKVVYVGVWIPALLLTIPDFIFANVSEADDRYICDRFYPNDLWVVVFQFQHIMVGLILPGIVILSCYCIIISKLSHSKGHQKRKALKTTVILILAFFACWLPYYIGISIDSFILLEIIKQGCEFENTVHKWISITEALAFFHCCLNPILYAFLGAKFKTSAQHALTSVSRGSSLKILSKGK
Protocol: as §2

[4] = target: T3, WT CXCR4 (Homo sapiens, UniProt P61073); assay: as above; type: cell-based; conditions: K562, read-out: Emax (% inhibition) of mavorixafor, Ca2+ mobilization
T3 construct: cloned into pcDNA3.1(Hygro+) via NheI/EcoRV to give pcDNA3.1_CXCR4; expressed in transfected cells; host or cells: K562
T3 sequence (P61073 whole entry): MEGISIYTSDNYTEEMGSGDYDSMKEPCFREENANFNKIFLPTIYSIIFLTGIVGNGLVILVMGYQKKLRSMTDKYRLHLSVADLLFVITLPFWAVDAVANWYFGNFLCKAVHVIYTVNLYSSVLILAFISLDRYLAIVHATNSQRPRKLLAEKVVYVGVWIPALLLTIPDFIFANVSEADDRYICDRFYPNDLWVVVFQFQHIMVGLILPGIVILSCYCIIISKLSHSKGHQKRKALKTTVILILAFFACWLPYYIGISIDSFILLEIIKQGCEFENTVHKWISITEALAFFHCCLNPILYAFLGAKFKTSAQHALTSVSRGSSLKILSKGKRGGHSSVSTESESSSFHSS
Protocol: as §2

[5] = target: T4, CXCR4 G336X (Homo sapiens, UniProt P61073); assay: as above; type: cell-based; conditions: K562, read-out: Emax (% inhibition) of mavorixafor, Ca2+ mobilization
T4 construct: expressed in transfected cells; host or cells: K562
T4 sequence (P61073 1-335 limits assumed): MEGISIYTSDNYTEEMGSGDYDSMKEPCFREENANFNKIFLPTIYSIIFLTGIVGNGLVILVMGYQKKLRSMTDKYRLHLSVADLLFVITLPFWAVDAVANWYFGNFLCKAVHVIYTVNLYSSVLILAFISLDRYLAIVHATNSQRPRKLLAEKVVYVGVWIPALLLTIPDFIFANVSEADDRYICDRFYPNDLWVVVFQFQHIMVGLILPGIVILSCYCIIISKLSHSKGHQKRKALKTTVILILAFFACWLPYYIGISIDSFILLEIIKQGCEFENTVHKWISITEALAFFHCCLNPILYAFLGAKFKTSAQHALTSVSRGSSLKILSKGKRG
Protocol: as §2

[6] = target: T5, CXCR4 T318P fs*3 (Homo sapiens, UniProt P61073); assay: as above; type: cell-based; conditions: K562, read-out: Emax (% inhibition) of mavorixafor, Ca2+ mobilization
T5 construct: expressed in transfected cells; host or cells: K562
T5 sequence (P61073 with tags, fused parts or gaps, stated change not applied): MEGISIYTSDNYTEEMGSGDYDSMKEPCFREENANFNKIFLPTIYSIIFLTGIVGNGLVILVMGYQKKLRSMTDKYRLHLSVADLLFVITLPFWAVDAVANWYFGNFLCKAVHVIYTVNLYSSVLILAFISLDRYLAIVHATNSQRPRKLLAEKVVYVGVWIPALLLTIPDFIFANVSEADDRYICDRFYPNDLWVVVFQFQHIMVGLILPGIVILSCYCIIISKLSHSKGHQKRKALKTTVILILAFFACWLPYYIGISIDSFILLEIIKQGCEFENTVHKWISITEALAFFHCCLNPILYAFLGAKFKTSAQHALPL
Protocol: as §2

[7] = target: T6, CXCR4 S338X (Homo sapiens, UniProt P61073); assay: as above; type: cell-based; conditions: K562, read-out: Emax (% inhibition) of mavorixafor, Ca2+ mobilization
T6 construct: expressed in transfected cells; host or cells: K562
T6 sequence (P61073 1-337 limits assumed): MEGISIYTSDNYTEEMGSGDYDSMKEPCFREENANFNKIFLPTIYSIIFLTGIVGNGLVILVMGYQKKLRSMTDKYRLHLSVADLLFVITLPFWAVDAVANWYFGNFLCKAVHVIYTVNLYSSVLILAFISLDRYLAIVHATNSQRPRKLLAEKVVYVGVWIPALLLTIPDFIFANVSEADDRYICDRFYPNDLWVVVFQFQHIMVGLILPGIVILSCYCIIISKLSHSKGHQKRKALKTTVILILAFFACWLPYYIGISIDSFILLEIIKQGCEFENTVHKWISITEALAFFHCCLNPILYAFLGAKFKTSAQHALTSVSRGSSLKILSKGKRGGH
Protocol: as §2

[8] = target: T7, CXCR4 L329Q fs*13 (Homo sapiens, UniProt P61073); assay: as above; type: cell-based; conditions: K562, read-out: Emax (% inhibition) of mavorixafor, Ca2+ mobilization
T7 construct: expressed in transfected cells; host or cells: K562
T7 sequence (P61073 with tags, fused parts or gaps, stated change not applied): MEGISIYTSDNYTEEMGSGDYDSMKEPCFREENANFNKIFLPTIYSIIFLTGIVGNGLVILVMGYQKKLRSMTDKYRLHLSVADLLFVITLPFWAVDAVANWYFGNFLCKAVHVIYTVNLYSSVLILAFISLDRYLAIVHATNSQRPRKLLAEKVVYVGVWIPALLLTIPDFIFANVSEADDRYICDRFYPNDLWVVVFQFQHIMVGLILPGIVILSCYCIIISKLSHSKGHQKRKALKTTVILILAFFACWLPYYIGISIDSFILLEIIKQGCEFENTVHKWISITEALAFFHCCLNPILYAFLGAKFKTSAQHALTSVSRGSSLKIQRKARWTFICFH
Protocol: as §2

[9] = target: T8, CXCR4 S324V fs*20 (Homo sapiens, UniProt P61073); assay: as above; type: cell-based; conditions: K562, read-out: Emax (% inhibition) of mavorixafor, Ca2+ mobilization
T8 construct: expressed in transfected cells; host or cells: K562
T8 sequence (P61073 with tags, fused parts or gaps, stated change not applied): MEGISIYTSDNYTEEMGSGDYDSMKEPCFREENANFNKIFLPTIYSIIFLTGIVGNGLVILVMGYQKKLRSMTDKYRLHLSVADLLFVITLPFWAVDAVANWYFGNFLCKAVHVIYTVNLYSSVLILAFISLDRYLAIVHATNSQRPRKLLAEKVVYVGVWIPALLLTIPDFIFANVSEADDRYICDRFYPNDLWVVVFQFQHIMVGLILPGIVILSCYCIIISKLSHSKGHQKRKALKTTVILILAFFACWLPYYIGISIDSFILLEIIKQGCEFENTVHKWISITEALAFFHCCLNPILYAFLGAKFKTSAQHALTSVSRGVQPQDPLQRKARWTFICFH
Protocol: as §2

[10] = target: T9, CXCR4 S341P fs*25 (Homo sapiens, UniProt P61073); assay: as above; type: cell-based; conditions: K562, read-out: Emax (% inhibition) of mavorixafor, Ca2+ mobilization
T9 construct: expressed in transfected cells; host or cells: K562
T9 sequence (P61073 with tags, fused parts or gaps, stated change not applied): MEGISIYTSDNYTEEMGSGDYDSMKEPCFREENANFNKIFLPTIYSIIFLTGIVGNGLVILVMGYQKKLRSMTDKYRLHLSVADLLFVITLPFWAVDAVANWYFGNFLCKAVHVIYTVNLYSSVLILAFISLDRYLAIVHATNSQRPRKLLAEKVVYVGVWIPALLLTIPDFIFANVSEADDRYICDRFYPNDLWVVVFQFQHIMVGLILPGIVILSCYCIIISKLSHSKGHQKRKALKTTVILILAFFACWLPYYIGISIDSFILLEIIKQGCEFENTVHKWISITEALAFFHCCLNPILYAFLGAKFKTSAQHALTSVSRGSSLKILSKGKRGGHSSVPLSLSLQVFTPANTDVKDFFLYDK
Protocol: as §2

[11] = target: T10, CXCR4 E343X (Homo sapiens, UniProt P61073); assay: as above; type: cell-based; conditions: K562, read-out: Emax (% inhibition) of mavorixafor, Ca2+ mobilization
T10 construct: expressed in transfected cells; host or cells: K562
T10 sequence (P61073 1-342 limits assumed): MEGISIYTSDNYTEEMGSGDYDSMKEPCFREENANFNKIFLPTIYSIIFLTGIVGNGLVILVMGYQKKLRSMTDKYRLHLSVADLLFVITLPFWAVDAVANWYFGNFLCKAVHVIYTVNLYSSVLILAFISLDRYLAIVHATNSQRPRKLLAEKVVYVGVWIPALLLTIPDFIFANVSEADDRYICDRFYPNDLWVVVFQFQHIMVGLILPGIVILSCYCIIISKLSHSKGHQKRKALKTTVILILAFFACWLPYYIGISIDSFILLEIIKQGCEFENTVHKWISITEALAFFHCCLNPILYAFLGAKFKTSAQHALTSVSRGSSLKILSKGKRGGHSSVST
Protocol: as §2

[12] = target: T11, CXCR4 V320E fs*23 (Homo sapiens, UniProt P61073); assay: as above; type: cell-based; conditions: K562, read-out: Emax (% inhibition) of mavorixafor, Ca2+ mobilization
T11 construct: expressed in transfected cells; host or cells: K562
T11 sequence (P61073 with tags, fused parts or gaps, stated change not applied): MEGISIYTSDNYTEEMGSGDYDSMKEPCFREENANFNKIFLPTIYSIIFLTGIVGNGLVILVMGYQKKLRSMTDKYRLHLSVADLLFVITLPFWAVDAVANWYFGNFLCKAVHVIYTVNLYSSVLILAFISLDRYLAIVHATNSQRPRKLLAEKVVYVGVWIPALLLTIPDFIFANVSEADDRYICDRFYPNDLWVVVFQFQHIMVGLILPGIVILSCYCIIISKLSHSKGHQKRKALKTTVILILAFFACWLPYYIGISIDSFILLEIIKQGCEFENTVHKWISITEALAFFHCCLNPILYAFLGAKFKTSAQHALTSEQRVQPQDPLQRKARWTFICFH
Protocol: as §2

[13] = target: T12, CXCR4 S339C fs*4 (Homo sapiens, UniProt P61073); assay: as above; type: cell-based; conditions: K562, read-out: Emax (% inhibition) of mavorixafor, Ca2+ mobilization
T12 construct: expressed in transfected cells; host or cells: K562
T12 sequence (P61073 with tags, fused parts or gaps, stated change not applied): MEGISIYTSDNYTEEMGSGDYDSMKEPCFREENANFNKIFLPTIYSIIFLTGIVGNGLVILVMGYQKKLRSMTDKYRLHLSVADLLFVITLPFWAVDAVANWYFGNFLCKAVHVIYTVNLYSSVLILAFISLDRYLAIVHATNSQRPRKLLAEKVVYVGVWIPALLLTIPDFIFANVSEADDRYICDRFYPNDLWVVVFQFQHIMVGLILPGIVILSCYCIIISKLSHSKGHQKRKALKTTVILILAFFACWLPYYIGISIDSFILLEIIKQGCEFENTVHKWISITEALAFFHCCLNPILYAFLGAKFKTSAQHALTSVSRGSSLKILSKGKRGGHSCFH
Protocol: as §2

[14] = target: T13, CXCR4 S339F fs*6 (Homo sapiens, UniProt P61073); assay: as above; type: cell-based; conditions: K562, read-out: Emax (% inhibition) of mavorixafor, Ca2+ mobilization
T13 construct: expressed in transfected cells; host or cells: K562
T13 sequence (P61073 with tags, fused parts or gaps, stated change not applied): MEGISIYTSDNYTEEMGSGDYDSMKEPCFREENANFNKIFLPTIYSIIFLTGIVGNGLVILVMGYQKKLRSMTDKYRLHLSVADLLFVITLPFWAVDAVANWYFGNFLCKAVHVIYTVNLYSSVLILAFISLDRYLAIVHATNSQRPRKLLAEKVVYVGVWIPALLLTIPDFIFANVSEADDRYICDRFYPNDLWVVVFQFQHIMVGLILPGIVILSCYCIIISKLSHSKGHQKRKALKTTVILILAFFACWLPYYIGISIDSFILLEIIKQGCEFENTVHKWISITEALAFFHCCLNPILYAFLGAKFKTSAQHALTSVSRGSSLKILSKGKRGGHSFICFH
Protocol: as §2

[15] = target: T14, CXCR4 E343K (Homo sapiens, UniProt P61073, E343K); assay: as above; type: cell-based; conditions: K562, read-out: Emax (% inhibition) of mavorixafor, Ca2+ mobilization
T14 construct: expressed in transfected cells; host or cells: K562
T14 sequence (P61073 whole entry E343K): as the sequence (P61073 whole entry) above, with E343K counted along it
Protocol: as §2

[16] = target: all CXCR4^WHIM variants (Homo sapiens, UniProt P61073); assay: Ca2+ mobilization assay, K562 cells, pooled over variants; type: cell-based; conditions: K562, read-out: Emax of mavorixafor, Ca2+ mobilization, range over variants
Protocol: as §2, with “°C.” for “°C. Jurkat cells (3 × 10^5 cells/well) were incubated with the Screen Quest Calbryte-520 Probenecid-Free and Wash-Free Calcium Assay Kit (AAT Bioquest, Sunnyvale, California, USA) according to manufacturer’s instructions.”

[17] = target: T15, R334X/WT CXCR4 (RX/WT Jurkat cells) (Homo sapiens, UniProt P61073); assay: ERK activation assay (phosphoflow p-T202/Y204 ERK), Jurkat cells; type: cell-based; conditions: 10 nM CXCL12 for 5 min
T15 construct: cells endogenously expressing WT, R334X/WT or R334X/R334X CXCR4 at similar levels; endogenous in cells; host or cells: Jurkat E6-1 clone B2 (CRISPR-Cas9 edited, made at Applied StemCell)
T15 sequence (P61073 1-333 limits assumed): as the sequence (P61073 1-333 limits assumed) above
T15 sequence (P61073 whole entry): as the sequence (P61073 whole entry) above
Protocol: as §1

[18] = target: T16, R334X/R334X CXCR4 (RX/RX Jurkat cells) (Homo sapiens, UniProt P61073); assay: as above; type: cell-based; conditions: 10 nM CXCL12 for 5 min
T16 construct: a cellular model of homozygous and heterozygous R334X CXCR4 in an endogenous locus; host or cells: Jurkat (E6-1, ATCC), CRISPR-Cas9 clones A3 and B5 (RX/RX)
T16 sequence (P61073 1-333 limits assumed): as the sequence (P61073 1-333 limits assumed) above
Protocol: as §1

[19] = target: CXCR4 (WT/WT, RX/WT, RX/RX Jurkat cells) (Homo sapiens, UniProt P61073); assay: ERK activation assay (phosphoflow), all Jurkat cell lines tested; type: cell-based; conditions: 40 nM, 200 nM or 1 µM mavorixafor, 10 nM CXCL12 for 5 min
Chain of CXCR4 (WT/WT, RX/WT, RX/RX Jurkat cells) (P61073 1-333 limits assumed): as above
Protocol: as §1

[20] = tested on: WT CXCR4 and CXCR4^WHIM variants; assay: AKT activation assay (phosphoflow p-S473 AKT), K562 cells with stable CXCR4 expression; type: cell-based, human; conditions: 40 nM, 200 nM or 1 µM mavorixafor, 10 nM CXCL12 for 5 min
Protocol: as §1

[21] = target: CXCR4 (WT/WT, RX/WT, RX/RX) (Homo sapiens, UniProt P61073); assay: Ligand binding inhibition assay (AF647-CXCL12), Jurkat cells, across all cell lines
Chain of CXCR4 (WT/WT, RX/WT, RX/RX) (P61073 1-333 limits assumed): as above
Protocol: Jurkat cells were washed once with assay buffer (HBSS + 20 mM HEPES buffer +0.2% BSA, pH 7.4) and then incubated for 15 min at room temperature with test compound diluted in assay buffer at dose-dependent concentrations. […] The cells were incubated for 30 min at room temperature. Thereafter, the cells were washed twice in assay buffer, fixed with 1% paraformaldehyde in PBS, and analyzed by flow cytometry (Cytoflex). […] The percentage of inhibition was calculated according to the formula: [1-((MFI-MFINC)/(MFIPC-MFINC))]*100 where MFI is the mean fluorescence intensity of cells in the presence of an inhibitor, MFINC is mean fluorescence intensity of cells in the absence of the ligand and MFIPC is mean fluorescence intensity of cells in the presence of the ligand alone.

- Emax [2]: 76%
- Emax [3]: 72%
- Emax [4]: 84%
- Emax [5]: 82%
- Emax [6]: 88%
- Emax [7]: 89%
- Emax [8]: 51%
- Emax [9]: 58%
- Emax [10]: 57%
- Emax [11]: 90%
- Emax [12]: 65%
- Emax [13]: 77%
- Emax [14]: 59%
- Emax [15]: 66%
- Emax [16]: 51 to 90%
- Concentration that normalized the hyperactive ERK signaling [17]: 40 nM
- Concentration that normalized the hyperactive ERK signaling [18]: 200 nM
- Effect on CXCL12-stimulated ERK activation [19]: inhibited
- Efficacy of inhibition of CXCL12 binding to CXCR4 [21]: 100%
Compound: NCCCCN(Cc1nc2ccccc2[nH]1)[C@H]1CCCc2cccnc21 [mavorixafor]
- Effect on CXCL12-dependent ERK activation [1]: inhibited
- Effect on CXCL12-dependent AKT activation [20]: inhibited
